This is an account of results in ChEMBL document CHEMBL1126527, “Insight into the catalytic mechanism of KDO8P synthase. Synthesis and evaluation of the isosteric phosphonate mimic of the putative cyclic intermediate” (Bioorg Med Chem Lett, 1993).

This assay in a line: Inhibition of homogeneous KDO 8-P synthase of Escherichia coli was determined from Dixon Plot.

Usually pKi stands for the Ki on a negative log10 scale, so that one unit is a factor of ten. Read a low pKi as a high Ki.

pKi: −log10 of the molar value.

For `O=C(O)C1(OP(=O)(O)O)CC(O)C(O)C([C@H](O)COP(=O)(O)O)O1` (stereo partly specified), the negative-log Ki (pKi) was 5.31.
